# Test results published in ChEMBL document CHEMBL5465560, “Selectivity Literature for EUbOPEN Chemogenomic Library” (2024).
# Assays:
# [1] = molecular target: T1, Phosphatidylinositol 4,5-bisphosphate 3-kinase catalytic subunit delta isoform (Homo sapiens) (UniProt O00329); experiment: Selectivity interaction (KinomeScan (DiscoverX)) EUB0000092b PIK3CD; details: at 10 µM
# T1 sequence (whole entry): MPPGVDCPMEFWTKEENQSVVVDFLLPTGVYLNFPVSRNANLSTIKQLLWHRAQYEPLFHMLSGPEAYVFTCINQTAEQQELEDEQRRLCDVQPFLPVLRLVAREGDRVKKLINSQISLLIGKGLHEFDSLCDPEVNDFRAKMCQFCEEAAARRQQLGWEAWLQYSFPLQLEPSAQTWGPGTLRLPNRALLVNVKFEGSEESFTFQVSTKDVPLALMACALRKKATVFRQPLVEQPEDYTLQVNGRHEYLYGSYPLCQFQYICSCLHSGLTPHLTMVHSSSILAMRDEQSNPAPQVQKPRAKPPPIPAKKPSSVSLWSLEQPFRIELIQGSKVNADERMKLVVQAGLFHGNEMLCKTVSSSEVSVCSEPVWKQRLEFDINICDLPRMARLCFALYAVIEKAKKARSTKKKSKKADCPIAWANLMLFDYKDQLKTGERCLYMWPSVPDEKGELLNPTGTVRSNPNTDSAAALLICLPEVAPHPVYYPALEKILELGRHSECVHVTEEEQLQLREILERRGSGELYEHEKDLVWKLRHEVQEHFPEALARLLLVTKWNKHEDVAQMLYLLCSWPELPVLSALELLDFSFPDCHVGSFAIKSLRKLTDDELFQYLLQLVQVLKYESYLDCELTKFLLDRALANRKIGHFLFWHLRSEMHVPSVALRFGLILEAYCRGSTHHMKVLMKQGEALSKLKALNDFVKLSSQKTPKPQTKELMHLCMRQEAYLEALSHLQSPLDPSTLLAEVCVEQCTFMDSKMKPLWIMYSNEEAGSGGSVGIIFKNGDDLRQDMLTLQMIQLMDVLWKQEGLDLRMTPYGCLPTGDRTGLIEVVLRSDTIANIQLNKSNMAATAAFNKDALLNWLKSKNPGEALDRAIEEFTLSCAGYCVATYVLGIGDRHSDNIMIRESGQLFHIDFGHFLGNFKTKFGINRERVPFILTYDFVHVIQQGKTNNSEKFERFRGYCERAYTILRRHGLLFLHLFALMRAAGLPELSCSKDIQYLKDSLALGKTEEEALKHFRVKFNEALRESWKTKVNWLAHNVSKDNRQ
# [2] = molecular target: Interleukin-1 receptor-associated kinase 1 (Homo sapiens) (UniProt P51617); details: at 10 µM
# [3] = molecular target: Phosphatidylinositol 4,5-bisphosphate 3-kinase catalytic subunit beta isoform (Homo sapiens) (UniProt P42338); experiment: Selectivity interaction (ActivX KiNativ screen (kinase selectivity in THP-1 cell lysates)) EUB0000639a PIK3CB; assay type: subcellular; details: lysate
# [4] = molecular target: T2, Dual specificity protein kinase TTK (Homo sapiens) (UniProt P33981); experiment: Selectivity interaction (KinomeScan (DiscoverX)) EUB0001049a TTK; details: at 1 µM
# T2 sequence (whole entry): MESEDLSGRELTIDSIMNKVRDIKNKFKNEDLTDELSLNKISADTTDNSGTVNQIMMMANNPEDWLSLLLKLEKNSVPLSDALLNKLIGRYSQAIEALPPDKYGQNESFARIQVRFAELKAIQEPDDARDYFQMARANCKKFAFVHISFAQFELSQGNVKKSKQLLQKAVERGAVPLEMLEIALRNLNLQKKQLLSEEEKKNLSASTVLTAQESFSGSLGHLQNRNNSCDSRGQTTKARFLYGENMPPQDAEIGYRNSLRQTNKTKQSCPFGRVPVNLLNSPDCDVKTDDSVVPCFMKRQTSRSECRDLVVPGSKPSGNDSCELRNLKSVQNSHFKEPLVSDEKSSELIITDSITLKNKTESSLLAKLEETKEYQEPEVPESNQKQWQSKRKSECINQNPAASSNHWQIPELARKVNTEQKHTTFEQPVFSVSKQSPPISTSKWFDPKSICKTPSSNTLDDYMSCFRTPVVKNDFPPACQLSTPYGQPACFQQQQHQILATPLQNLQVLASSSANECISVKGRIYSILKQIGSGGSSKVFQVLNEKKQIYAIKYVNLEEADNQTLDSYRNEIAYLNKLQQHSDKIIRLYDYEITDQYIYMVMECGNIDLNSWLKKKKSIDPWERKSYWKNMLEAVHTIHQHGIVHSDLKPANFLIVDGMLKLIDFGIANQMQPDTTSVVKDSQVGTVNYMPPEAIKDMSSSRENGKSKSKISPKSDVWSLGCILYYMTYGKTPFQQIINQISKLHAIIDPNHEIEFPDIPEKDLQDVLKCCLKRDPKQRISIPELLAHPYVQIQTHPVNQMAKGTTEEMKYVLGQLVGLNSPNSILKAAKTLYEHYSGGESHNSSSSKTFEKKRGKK
# [5] = molecular target: Macrophage-stimulating protein receptor (Homo sapiens, UniProt Q04912); experiment: Selectivity interaction (KinomeScan (DiscoverX)) EUB0000595a MST1R; details: at 10 µM
# [6] = molecular target: Tyrosine-protein kinase BTK (Homo sapiens, UniProt Q06187); details: at 1 µM
# Chain of Tyrosine-protein kinase BTK (Q06187 whole entry): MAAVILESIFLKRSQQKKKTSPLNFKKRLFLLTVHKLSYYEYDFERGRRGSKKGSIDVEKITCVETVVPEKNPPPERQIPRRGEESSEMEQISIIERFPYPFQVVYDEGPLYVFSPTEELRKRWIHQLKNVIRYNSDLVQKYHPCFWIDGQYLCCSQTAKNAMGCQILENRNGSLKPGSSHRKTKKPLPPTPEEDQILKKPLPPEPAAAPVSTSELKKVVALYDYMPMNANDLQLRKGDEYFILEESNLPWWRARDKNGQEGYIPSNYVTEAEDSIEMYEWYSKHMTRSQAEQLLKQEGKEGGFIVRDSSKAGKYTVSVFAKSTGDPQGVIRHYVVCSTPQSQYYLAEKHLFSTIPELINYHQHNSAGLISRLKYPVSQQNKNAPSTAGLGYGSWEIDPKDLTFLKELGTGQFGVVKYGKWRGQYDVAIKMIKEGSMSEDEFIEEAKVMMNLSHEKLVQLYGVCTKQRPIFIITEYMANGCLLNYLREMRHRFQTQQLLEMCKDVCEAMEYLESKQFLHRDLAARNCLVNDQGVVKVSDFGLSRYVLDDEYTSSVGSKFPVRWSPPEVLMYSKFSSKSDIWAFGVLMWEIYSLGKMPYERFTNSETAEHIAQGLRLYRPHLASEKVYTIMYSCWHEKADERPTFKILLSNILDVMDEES
# Chain of Phosphatidylinositol 4,5-bisphosphate 3-kinase catalytic subunit beta isoform (Homo sapiens) (P42338 whole entry, looked up, canonical isoform): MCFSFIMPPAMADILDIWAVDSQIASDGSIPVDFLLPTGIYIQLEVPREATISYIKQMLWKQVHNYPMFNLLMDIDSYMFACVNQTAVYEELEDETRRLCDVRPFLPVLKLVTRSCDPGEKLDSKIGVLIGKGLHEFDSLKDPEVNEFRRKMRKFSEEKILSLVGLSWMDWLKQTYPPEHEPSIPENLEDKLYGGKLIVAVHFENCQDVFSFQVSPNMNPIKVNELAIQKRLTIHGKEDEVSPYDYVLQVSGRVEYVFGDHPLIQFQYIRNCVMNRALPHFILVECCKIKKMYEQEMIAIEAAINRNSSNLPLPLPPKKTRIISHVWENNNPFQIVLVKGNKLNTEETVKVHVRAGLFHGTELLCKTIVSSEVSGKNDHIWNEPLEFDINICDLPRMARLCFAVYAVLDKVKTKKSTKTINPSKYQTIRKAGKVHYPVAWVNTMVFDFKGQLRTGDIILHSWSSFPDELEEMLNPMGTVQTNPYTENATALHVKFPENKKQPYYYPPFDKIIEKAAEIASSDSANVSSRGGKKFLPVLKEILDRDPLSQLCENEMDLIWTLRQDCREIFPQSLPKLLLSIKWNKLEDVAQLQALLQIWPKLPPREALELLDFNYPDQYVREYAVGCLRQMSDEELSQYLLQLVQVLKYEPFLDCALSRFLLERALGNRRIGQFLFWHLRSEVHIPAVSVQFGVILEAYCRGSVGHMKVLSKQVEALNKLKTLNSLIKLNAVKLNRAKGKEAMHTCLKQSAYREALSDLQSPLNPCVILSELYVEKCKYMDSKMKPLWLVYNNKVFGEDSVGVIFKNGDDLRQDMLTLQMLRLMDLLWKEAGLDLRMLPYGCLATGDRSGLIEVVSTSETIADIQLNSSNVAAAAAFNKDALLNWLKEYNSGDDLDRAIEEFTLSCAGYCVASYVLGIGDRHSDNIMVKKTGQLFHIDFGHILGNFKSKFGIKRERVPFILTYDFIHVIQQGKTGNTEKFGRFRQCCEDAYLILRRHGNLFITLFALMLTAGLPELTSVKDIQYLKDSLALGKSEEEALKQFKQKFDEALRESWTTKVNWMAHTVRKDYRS
# Chain of Interleukin-1 receptor-associated kinase 1 (Homo sapiens) (P51617 whole entry, looked up, canonical isoform): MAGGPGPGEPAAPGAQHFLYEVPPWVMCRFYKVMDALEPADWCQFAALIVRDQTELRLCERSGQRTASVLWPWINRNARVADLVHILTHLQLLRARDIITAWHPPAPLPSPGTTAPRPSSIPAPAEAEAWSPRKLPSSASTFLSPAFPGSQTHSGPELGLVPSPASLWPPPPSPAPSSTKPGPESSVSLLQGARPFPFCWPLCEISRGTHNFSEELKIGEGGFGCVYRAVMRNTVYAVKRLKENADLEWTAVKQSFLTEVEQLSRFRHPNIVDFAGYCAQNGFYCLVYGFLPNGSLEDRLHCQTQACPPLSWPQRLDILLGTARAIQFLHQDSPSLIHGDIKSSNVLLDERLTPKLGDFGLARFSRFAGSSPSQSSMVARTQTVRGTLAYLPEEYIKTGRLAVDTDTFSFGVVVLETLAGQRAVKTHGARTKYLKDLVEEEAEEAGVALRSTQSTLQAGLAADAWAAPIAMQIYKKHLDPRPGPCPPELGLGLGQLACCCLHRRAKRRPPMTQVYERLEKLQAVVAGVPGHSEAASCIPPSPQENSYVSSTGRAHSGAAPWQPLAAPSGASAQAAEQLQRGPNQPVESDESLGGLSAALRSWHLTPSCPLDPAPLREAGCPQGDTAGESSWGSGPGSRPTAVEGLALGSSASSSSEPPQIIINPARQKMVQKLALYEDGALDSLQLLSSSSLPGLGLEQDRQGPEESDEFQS
# Chain of Macrophage-stimulating protein receptor (Q04912 25-304 limits assumed): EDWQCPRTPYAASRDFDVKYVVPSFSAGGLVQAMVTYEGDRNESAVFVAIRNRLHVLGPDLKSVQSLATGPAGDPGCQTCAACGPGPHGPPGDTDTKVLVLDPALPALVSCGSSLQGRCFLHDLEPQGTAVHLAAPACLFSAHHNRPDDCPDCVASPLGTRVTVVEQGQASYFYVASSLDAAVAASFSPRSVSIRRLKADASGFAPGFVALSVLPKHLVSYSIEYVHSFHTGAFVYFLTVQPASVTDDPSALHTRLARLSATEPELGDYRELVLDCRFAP
# Chain of Macrophage-stimulating protein receptor (Q04912 310-1400 limits assumed): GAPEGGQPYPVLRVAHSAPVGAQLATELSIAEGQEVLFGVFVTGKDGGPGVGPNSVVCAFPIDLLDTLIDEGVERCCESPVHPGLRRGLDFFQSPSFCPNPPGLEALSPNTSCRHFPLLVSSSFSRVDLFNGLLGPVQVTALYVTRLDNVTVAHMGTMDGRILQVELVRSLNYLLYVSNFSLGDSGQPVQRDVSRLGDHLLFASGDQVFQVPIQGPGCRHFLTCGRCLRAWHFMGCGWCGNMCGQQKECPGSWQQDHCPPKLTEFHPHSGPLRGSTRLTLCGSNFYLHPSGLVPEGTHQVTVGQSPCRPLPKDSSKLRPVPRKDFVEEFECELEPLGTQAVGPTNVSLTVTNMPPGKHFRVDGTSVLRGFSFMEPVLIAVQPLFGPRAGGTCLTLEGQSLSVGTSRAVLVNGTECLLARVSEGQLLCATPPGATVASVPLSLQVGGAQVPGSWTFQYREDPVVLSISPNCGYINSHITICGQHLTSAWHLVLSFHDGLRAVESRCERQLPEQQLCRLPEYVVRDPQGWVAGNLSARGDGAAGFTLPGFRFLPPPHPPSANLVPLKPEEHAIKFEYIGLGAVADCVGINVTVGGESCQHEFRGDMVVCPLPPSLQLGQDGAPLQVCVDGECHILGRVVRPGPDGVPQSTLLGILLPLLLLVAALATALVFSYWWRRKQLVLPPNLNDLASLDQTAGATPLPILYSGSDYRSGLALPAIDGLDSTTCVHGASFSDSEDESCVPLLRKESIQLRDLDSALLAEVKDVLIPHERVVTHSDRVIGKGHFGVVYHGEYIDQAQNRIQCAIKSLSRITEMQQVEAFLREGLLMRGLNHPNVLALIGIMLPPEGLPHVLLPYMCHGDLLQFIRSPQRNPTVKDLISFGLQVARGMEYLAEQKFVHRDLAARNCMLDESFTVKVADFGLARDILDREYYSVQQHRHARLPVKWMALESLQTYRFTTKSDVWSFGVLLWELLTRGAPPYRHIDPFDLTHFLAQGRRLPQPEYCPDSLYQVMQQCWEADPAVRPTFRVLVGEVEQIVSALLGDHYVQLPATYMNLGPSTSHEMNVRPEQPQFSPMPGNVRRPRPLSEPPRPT
compound,measurement,setting,value
CCC(=O)N1CCN(c2ccc(-n3c(=O)ccc4cnc5ccc(-c6cnc7ccccc7c6)cc5c43)cc2C(F)(F)F)CC1,% of control,[1],51%
Cc1cc([C@@H](C)Nc2ccccc2C(=O)O)c2nc(N3CCOCC3)cc(=O)n2c1 [AZD-6482],% of control,[2],90%
CC[C@@H]1[C@H](F)C(=O)N[C@@H]1COc1nccc2cc(C(N)=O)c(OC)cc12 [ZIMLOVISERTIB],% of inhibition,[3]; at 0.01 µM,-2.4%
same,% of inhibition,[3]; at 0.04 µM,1.2%
same,% of inhibition,[3]; at 0.2 µM,-29.5%
same,% of inhibition,[3]; at 1 µM,-29%
same,% of inhibition,[3]; at 5 µM,14.7%
COc1cc(Nc2nc(C)cc(-c3cnn4nc(OC)ccc34)n2)cc(C(F)(F)F)c1,% of control,[4],90%
COCC(=O)NC/C=C/c1ccc2ncnc(Nc3ccc(Oc4ccc(C)nc4)c(C)c3)c2c1 [CP-724714],% of control,[5],100%
C=CC(=O)Nc1cc(-n2c(=O)ccc3cnc4ccc(-c5ccc(NS(C)(=O)=O)cc5)cc4c32)ccc1C,% of control,[6],1%
